Results from patent US4868299A, “Antibacterially active pyrido-benzothiazine derivatives with long-term action” (Mediolanum Farmaceutici Srl, priority 1986, dated 1989).
In brackets after ≈: the same amount, converted by molar mass. Read-outs that look alike come from different tables or passages of the source.

Tests used:
[1] = urine concentrations after oral administration to the rat (HPLC); type: in vivo; settings: 50 mg/kg oral; for Cumulative excretion (urine) / Volume excreted (urine): pool of 6 rats
Protocol: (§1) The compound (X) was administered orally at a dose of 50 mg/kg to the rat after which the plasma, tissue and urine concentrations were evaluated by the HPLC method, as described hereinafter.
The urine was collected at various times during the 24 hours following administration. The results relative to urine concentrations are summarised in Table 2, and refer to a urine pool obtained form 6 female rates having a weight of about 100 g.
(§2) The HPLC determination was made by the following procedure: 2 mg of N-dimethyldiarepam (internal standard), 1 ml of citrate buffer (0.1 M, pH 6.2) and 6 ml of chloroform are added to 1 ml of plasma or to 1 ml of supernatant obtained after centrifuging a homogenized tissue in 3 volumes of physiological solution at 2000 r.p.m. for 5 minutes.
(§3) After agitating for 20 minutes and centrifuging at 3000 r.p.m. for 5 minutes, the organic phase is separated and dried over a water bath at 70° C.
(§4) The residue is collected in 50 μl of methanol, and 20 μl of the solution are injected into a HPLC (Gilson) column under the following conditions: column μ Bondopak C-18 ([…], wavelength 245 nm), flow: 0.7 ml/min, mobile phase: (A) 0.1% acetic acid and (B) methanol, gradient: […]

Staphylococcus 7 = experiment: in-vitro antibacterial activity, MIC by agar dilution (multipoint inoculator); type: cell-based; settings: Staphylococcus 7; 18 hours at 37° C; read-out: Minimum Inhibiting Concentration (MIC)
Protocol: (§5) The antibacterial activity of the compounds according to the invention was determined "in vitro" on pathogenic strains of recent clinical isolation by testing agar dilutions using a multipoint inoculator (Denley Techn. Ltd., England).
(§6) The culture medium used is isosensitest agar (Oxoid), in a quantity of 20 ml in a Petri capsule. The compounds to be tested were dissolved at various dilutions and incorporated in agar.
(§7) The bacterial inoculum, originating from an overnight broth and containing 10^5 colony-forming units per point, was inoculated by a multipoint inoculator. The bacterial growth was evaluated after 18 hours of incubation at 37° C.
(§8) For comparison purposes, the results relative to compound (XIII) and to nalidixic acid are also reported.

Escherichia 15 = experiment: as above; type: cell-based; settings: 18 hours at 37° C, read-out: Minimum Inhibiting Concentration (MIC)
Protocol: as §5, §6, §7, §8

Pseudomonas 19 = experiment: as above; type: cell-based; settings: Pseudomonas 19; 18 hours at 37° C; read-out: Minimum Inhibiting Concentration (MIC)
Protocol: as §5, §6, §7, §8

Pseudomonas 22437 = experiment: as above; type: cell-based; settings: 18 hours at 37° C, read-out: Minimum Inhibiting Concentration (MIC)
Protocol: as §5, §6, §7, §8

Citrobacter 120 = experiment: as above; type: cell-based; settings: Citrobacter 120; 18 hours at 37° C; read-out: Minimum Inhibiting Concentration (MIC)
Protocol: as §5, §6, §7, §8

Citrobacter 118 = experiment: as above; type: cell-based; settings: Citrobacter 118; 18 hours at 37° C; read-out: Minimum Inhibiting Concentration (MIC)
Protocol: as §5, §6, §7, §8

Klebsiella 4 = experiment: as above; type: cell-based; settings: Klebsiella 4; 18 hours at 37° C; read-out: Minimum Inhibiting Concentration (MIC)
Protocol: as §5, §6, §7, §8

Serratia 9 = experiment: as above; type: cell-based; settings: Serratia 9; 18 hours at 37° C; read-out: Minimum Inhibiting Concentration (MIC)
Protocol: as §5, §6, §7, §8

Enterobacter 041 = experiment: as above; type: cell-based; settings: Enterobacter 041; 18 hours at 37° C; read-out: Minimum Inhibiting Concentration (MIC)
Protocol: as §5, §6, §7, §8

Serratia 10 = experiment: as above; type: cell-based; settings: 18 hours at 37° C, read-out: Minimum Inhibiting Concentration (MIC)
Protocol: as §5, §6, §7, §8

Proteus 966 = experiment: as above; type: cell-based; settings: Proteus 966; 18 hours at 37° C; read-out: Minimum Inhibiting Concentration (MIC)
Protocol: as §5, §6, §7, §8

Proteus 25 = experiment: as above; type: cell-based; settings: Proteus 25; 18 hours at 37° C; read-out: Minimum Inhibiting Concentration (MIC)
Protocol: as §5, §6, §7, §8

Escherichia 963 = experiment: as above; type: cell-based; settings: Escherichia 963; 18 hours at 37° C; read-out: Minimum Inhibiting Concentration (MIC)
Protocol: as §5, §6, §7, §8

Enterobacter 2653 = experiment: as above; type: cell-based; settings: Enterobacter 2653; 18 hours at 37° C; read-out: Minimum Inhibiting Concentration (MIC)
Protocol: as §5, §6, §7, §8

Staphylococcus 29 = experiment: as above; type: cell-based; settings: Staphylococcus 29; 18 hours at 37° C; read-out: Minimum Inhibiting Concentration (MIC)
Protocol: as §5, §6, §7, §8

[2] = plasma and tissue concentrations after oral administration to the rat (HPLC); type: in vivo; settings: rat, 50 mg/kg oral; for concentration at 0.5 h: 0.5 hours after treatment; for concentration at 4 h: 4 hours after treatment; for concentration at 15 h: 15 hours after treatment
Protocol: as §1
The plasma and tissues (heart, kidney and liver) were withdrawn from groups of 3 female rats at various times after oral administration.
as §2, §3, §4

[3] = heart, read-out: Heart concentration
[4] = kidney, read-out: Kidney concentration
[5] = liver, read-out: Liver concentration
[6] = plasma, read-out: Plasma concentration

In the case of `CC1Cn2cc(C(=O)O)c(=O)c3cc(F)c(N4CCN(C)CC4)c(c32)S1` (stereo not drawn) [(X), 9-fluoro-10[N(N'-methyl)piperazinyl]-2-methyl-7-oxo-2,3-dihydro-7H-pyrido[1,2,3-de][1,4]benzothiazine-6-carboxylic acid], the “urine concentrations, in words” value [1] is reported as “lasting and high”, the “Cumulative excretion (urine)” value ([1]; 0-1 hours after treatment) is reported as 0.50 mg and the “Volume excreted (urine)” value ([1]; 0-1 hours after treatment) is reported as 5.5 mL. The “Cumulative excretion (urine)” value ([1]; 1-2 hours after treatment) was 1.33 mg, the “Volume excreted (urine)” value ([1]; 1-2 hours after treatment) was 3.2 mL and the “Cumulative excretion (urine)” value ([1]; 2-4 hours after treatment) was 2.05 mg. For the same compound, the “Volume excreted (urine)” value ([1]; 2-4 hours after treatment) was 7.2 mL, the “Cumulative excretion (urine)” value ([1]; 4-8 hours after treatment) was 3.13 mg and the “Volume excreted (urine)” value ([1]; 4-8 hours after treatment) was 6.0 mL. The “Cumulative excretion (urine)” value ([1]; 8-24 hours after treatment) was 8.17 mg, the “Volume excreted (urine)” value ([1]; 8-24 hours after treatment) was 28.0 mL and the concentration at 1 h ([1]; urine, 0-1 hours after treatment) was 90 µg/mL. It also gave a concentration at 2 h ([1]; urine, 1-2 hours after treatment) of 260 µg/mL, a concentration at 4 h ([1]; urine, 2-4 hours after treatment) of 100 µg/mL and a concentration at 8 h ([1]; urine, 4-8 hours after treatment) of 180 µg/mL. It also gave a concentration at 24 h ([1]; urine, 8-24 hours after treatment) of 180 µg/mL, a dose excreted at 24 h ([1]; urine, within 24 hours, of the orally administered dose, read-out: percentage urine excretion of the non-metabolized product) of roughly 27% and an MIC (Staphylococcus 7) of 2 µg/mL (≈ 5.3 µM). It also gave an MIC (Escherichia 15) of 0.25 µg/mL (≈ 0.662 µM), an MIC (Pseudomonas 19) of 16 µg/mL (≈ 42.4 µM) and an MIC (Pseudomonas 22437) of 16 µg/mL (≈ 42.4 µM). The MIC (Citrobacter 120) was 0.25 µg/mL (≈ 0.662 µM), the MIC (Citrobacter 118) was 0.5 µg/mL (≈ 1.32 µM) and the MIC (Klebsiella 4) was 0.25 µg/mL (≈ 0.662 µM). The MIC (Serratia 9) was 8 µg/mL (≈ 21.2 µM), the MIC (Enterobacter 041) was 0.25 µg/mL (≈ 0.662 µM) and the MIC (Serratia 10) was 2 µg/mL (≈ 5.3 µM). The MIC (Proteus 966) was 8 µg/mL (≈ 21.2 µM), the MIC (Proteus 25) was 8 µg/mL (≈ 21.2 µM) and the MIC (Escherichia 963) was 2 µg/mL (≈ 5.3 µM). For the same compound, the MIC (Enterobacter 2653) was 0.5 µg/mL (≈ 1.32 µM), the MIC (Staphylococcus 29) was 2 µg/mL (≈ 5.3 µM) and the “absorption after oral administration, in words” value [2] was “rapidly absorbed after oral administration to induce high tissue levels”. For the same compound, the “heart, kidney and liver concentrations relative to plasma, in words” value [2] was “always greater than those observed in the plasma”, the “tissue bioavailability, in words” value [2] was “excellent tissue bioavailability” and the “concentrations relative to the MIC values, in words” value ([2]; 15 hours after administration) was “high concentrations relative to the MIC values are still present”. The concentration at 0.5 h [2, 3] was 19200 ng/g, the concentration at 4 h [2, 3] was 18600 ng/g and the concentration at 15 h [2, 3] was 4630 ng/g. It also gave a concentration at 0.5 h [2, 4] of 34400 ng/g, a concentration at 4 h [2, 4] of 38700 ng/g and a concentration at 15 h [2, 4] of 5900 ng/g. For the same compound, the concentration at 0.5 h [2, 5] was 62900 ng/g, the concentration at 4 h [2, 5] was 34300 ng/g and the concentration at 15 h [2, 5] was 9370 ng/g. It also gave a concentration at 0.5 h [2, 6] of 10200 ng/mL, a concentration at 4 h [2, 6] of 8100 ng/mL and a concentration at 15 h [2, 6] of 3500 ng/mL.
